From patent US20230293539A1, “MLL1-WDR5 PROTEIN-PROTEIN INTERACTION INHIBITOR COMPOUNDS AND USES THEREOF” (HUYABIO International, LLC, priority 2022, published 2023)
pIC50: −log10 of the molar value.

What was measured:
Liver S9 stability assay [1] = assay type: in vitro ADME, dog
Protocol: (§1) Liver S9 stability assay: Test compounds (1 μM) and positive control were incubated with 5 mM GSH and liver S9 (1 mg protein/ml) from multiple species (including human, monkey, dog, rat and mouse) at 37° C. at 0, 10, 30, and 60 minutes in duplicate. After adding the stop solution, 100 μL of supernatant were analyzed by LC-MS/MS. The % remaining of test compound, T1/2 (min), and CLint (μL/min/mg) were calculated and were reported.

[2] = WBS (whole blood stability) assay; assay type: in vitro ADME; settings: for % Remaining after 60 min incubation: 2 μM, 37° C.
Protocol: WBS (whole blood stability) assay: The blood samples were collected freshly from multiple species including human, monkey, dog, rat and mouse. 2 μM of test compound and positive control were incubated with the whole blood at 37° C. at 0, 10, 30, 60, and 120 minutes in duplicate. After adding the stop solution, 200 μL of supernatant were analyzed by LC-MS/MS. The % remaining of test compound and T1/2 (min) were calculated and reported.

Liver S9 stability assay [3] = assay type: in vitro ADME, mouse
Protocol: as §1

Mouse PK (oral) = assay type: in vivo, C57/B16 mice; settings: for Cmax: plasma; for AUC(0-t) / half-life: C57/B16, plasma
Protocol: Mouse PK: Animals were dosed with a single intravenous bolus or oral gavage administration in naïve C57/B16 mice (Beijing Vital River Laboratory Animal Co., LTD). Blood samples were collected at the respective sampling time points. The quantification of compound concentrations in mouse or rat plasma was quantified using LC-MS/MS method. Plasma concentration versus time data was analyzed by non-compartmental mode approaches using the WinNonlin software program (version 6.3 or above, Pharsight). Pharmacokinetic parameters, including C0 (initial concentration after drug administration), […], Vdss (volume of distribution), Cmax (maximum peak concentration of the drug), Tmax (time required to reach Cmax) T1/2 (time required for drug concentration to decrease by 50% after administration), AUC0-last (area under the concentration-time curve from dosing time t=0 to the time of the last measured concentration), AUC0-inf (total drug exposure across time), MRT0-last (mean residence time from dosing time t=0 to the time of the last measured concentration), MRT0-inf f (mean residence time of total drug exposure), bioavailability (%) (the percentage (or the fraction F) of an administered drug dose that reaches the systemic circulation) for IV and PO groups were calculated. See Table 7 and FIGS. 6A, 6B, 6C and 6D.

WDR5 = WDR5 (Homo sapiens, UniProt P61964); experiment: WDR5 TR-FRET Assay; assay type: binding; settings: 5 nM WDR5 protein, 10 nM peptide, read-out: IC50 (MLL1-WDR5 PPI inhibitory activity)
Protocol: WDR5 TR-FRET Assay Procedure: Stock compounds were transferred to the assay plate by Echo Liquid Handler. Reactions were performed in the assay buffer (1×PBS, 300 mM NaCl, 0.5 mM TCEP, 0.1% CHAPS) containing 5 nM WDR5 protein, 10 nM peptide (Ac-ARTEVHLRKS-[Ahx-Ahx][C]-Alexa Fluor 488-NH2) and 0.25 nM Tb-anti His antibody (Tb-Ab) in 384-well white plate (PerkinElmer) with a final volume of 20 μl. Compounds were incubated with WDR5 protein for 30 min at room temperature. Plates were covered, protected from light and incubated for 60 min. at room temperature after adding the peptide and Tb-Ab. EnVision Multimode Plate Reader (PerkinElmer) was used for the TR-FRET assay with excitation wavelength at 340 nm and emission wavelength at 495 and 520 nm. The ratio of the 520/495 nm wavelengths were used to assess the degree of the FRET signal. IC50 was calculated by fitting the inhibition data using XLfit software to sigmoidal dose-response model.

[4] = Compound formulation stability assay; assay type: physicochemical; settings: 10 mg/mL in 10% DMSO/10% solutol HS 15/80% water, 2-8° C.
Protocol: Compound formulation stability assay: Test articles were formulated in 10% DMSO/10% solutol HS 15/80% water and stored at 4° C. Formulated compounds were analyzed by a HPLC-UV method for actual concentrations and % remaining on Day 1, 4 and 7 after formulation to determine the stability of the formulated test article. The HPLC system was equipped with Shimadzu LC-20 high-performance liquid chromatograph, SIL-20AC auto sampler, LC-20AB pump and SPD-M20A detector. A Waters XBridge C18 (4.6*100 mm) column was applied for the separation. […]

Liver S9 stability assay [5] = assay type: in vitro ADME, human
Protocol: as §1

Liver S9 stability assay [6] = assay type: in vitro ADME, rat
Protocol: as §1

MV 411 cells = experiment: Cell Viability Assay (CellTiter-Glo); assay type: cell-based; settings: Homo sapiens, MV4-11, 72 hours, read-out: IC50 (anti-proliferative activity against leukemia cells)
Protocol: Cell lines and maintenance: All cell lines (MV 411) used for in vitro and in vivo studies were supplied as part of Wuxi AppTech cell bank. Cell lines were maintained in a medium supplemented with 10% heat inactivated fetal bovine serum at 37° C., in an atmosphere of 5% CO2, in air. The tumor cells were routinely subcultured twice weekly. The cells growing in an exponential growth phase were used for the in vitro cell potency and in vivo efficacy studies.
EXAMPLE 1: Cell Viability Assay: For cell cytotoxicity assays, 2000 cells/well were plated in 384-well plates. Twenty four hours after plating, cells were treated with inhibitors at the indicated compound concentrations. On Day 3 (72 hours), cells were lysed with CellTiter-Glo® Luminescent Cell Viability Assay reagent (Promega) and luminescence was read using the EnVision Multi-plate reader. To calculate IC50, a dose-response curve is generated using a nonlinear regression model with a sigmoidal dose response. The formula of surviving rate is shown below. IC50 values were automatically generated by GraphPad Prism 8.0. See FIG. 1A and FIG. 1B and Tables 3 and 4.

CCN(CC)C(=O)c1cn(-c2cc(NC(=O)c3cc(N)c(F)c(C)c3Cl)c(N3C[C@@H](C)N(C)[C@@H](C)C3)cc2F)nn1 [HYBI-082, 1-(5-(5-amino-2-chloro-4-fluoro-3-methylbenzamido)-2-fluoro-4-((3S,5R)-3,4,5-trimethylpiperazin-1-yl)phenyl)-N,N-diethyl-1H-1,2,3-triazole-4-carboxamide]
half-life at 1 μM (Liver S9 stability assay [1]; Dog liver S9): > 2.42 h
microsomal CLint at 1 μM (Liver S9 stability assay [1]; Dog liver S9): < 4.8 µL/min/mg
% Remaining after 60 min incubation (Liver S9 stability assay [1]; Dog liver S9, 1 μM, 5 mM GSH, 37° C.): 87.3%
half-life at 2 μM ([2]; Dog whole blood): > 2.41 h
% Remaining after 60 min incubation ([2]; Dog whole blood): 90.6%
half-life at 2 μM ([2]; Human whole blood): 11.9 h
% Remaining after 60 min incubation ([2]; Human whole blood): 100%
half-life at 2 μM ([2]; Mouse whole blood): > 2.41 h
% Remaining after 60 min incubation ([2]; Mouse whole blood): 82.4%
half-life at 2 μM ([2]; Rat whole blood): > 2.41 h
% Remaining after 60 min incubation ([2]; Rat whole blood): 99.6%
half-life at 1 μM (Liver S9 stability assay [3]; Mouse liver S9): > 2.42 h
microsomal CLint at 1 μM (Liver S9 stability assay [3]; Mouse liver S9): < 4.8 µL/min/mg
% Remaining after 60 min incubation (Liver S9 stability assay [3]; Mouse liver S9, 1 μM, 5 mM GSH, 37° C.): 87.7%
F (Mouse PK (oral); 10 mpk): 23.3%
F (Mouse PK (oral); 30 mpk): 27.5%
Cmax (Mouse PK (oral); C57/B16, 10 mg/kg, 10 mpk): 1.67 µM
Cmax (Mouse PK (oral); C57/B16, 30 mg/kg, 30 mpk): 4.53 µM
AUC(0-t) (Mouse PK (oral); 10 mg/kg, 10 mpk): 2.22 µM·h
half-life (Mouse PK (oral); 10 mg/kg, 10 mpk): 0.8 h
AUC(0-t) (Mouse PK (oral); 30 mg/kg, 30 mpk): 7.61 µM·h
half-life (Mouse PK (oral); 30 mg/kg, 30 mpk): 2 h
pIC50 (WDR5): 8.27
Accuracy % (Day 0) ([4]; Day 0): 96.3%
Formulation Appearance (Day 0) ([4]; Day 0): clear
Remaining % (Day 0) ([4]; Day 0): 100%
Accuracy % (Day 1) ([4]; Day 1): 96.0%
Formulation Appearance (Day 1) ([4]; Day 1): clear
Remaining % (Day 1) ([4]; Day 1): 100%
Accuracy % (Day 4) ([4]; Day 4): 99.3%
Formulation Appearance (Day 4) ([4]; Day 4): clear
Remaining % (Day 4) ([4]; Day 4): 103%
Accuracy % (Day 7) ([4]; Day 7): 98.6%
Formulation Appearance (Day 7) ([4]; Day 7): clear
Remaining % (Day 7) ([4]; Day 7): 102%
half-life at 1 μM (Liver S9 stability assay [5]; Human liver S9): > 2.42 h
microsomal CLint at 1 μM (Liver S9 stability assay [5]; Human liver S9): < 4.8 µL/min/mg
% Remaining after 60 min incubation (Liver S9 stability assay [5]; Human liver S9, 1 μM, 5 mM GSH, 37° C.): 107%
half-life at 1 μM (Liver S9 stability assay [6]; Rat liver S9): > 2.42 h
microsomal CLint at 1 μM (Liver S9 stability assay [6]; Rat liver S9): < 4.8 µL/min/mg
% Remaining after 60 min incubation (Liver S9 stability assay [6]; Rat liver S9, 1 μM, 5 mM GSH, 37° C.): 98.3%
pIC50 (MV 411 cells): 5.11
